Laboratory results as given in patent publication US6380155B1, “Use of vasopressin receptor antagonist for regulation of ACTH release” (SmithKline Beecham plc., priority 1996, dated 2002).

System: ob/ob mice
Test: Plasma corticosterone in ob/ob mice after 7-day osmotic minipump treatment
Type: in vivo, mouse
Conditions: C57BL/6J ob/ob mice, 86.4 μg/day by osmotic minipump for 7 days
Experimental: A study was performed in 4-6 weeks old C57BL/6J mice homozygous (ob/ob) for the obese gene mutation to assess the effect of [deamino-Pen^1, o-Me-Tyr^2, Arg^8]-AVP (Sigma) a non-selective peptide V1b receptor antagonist on corticosterone concentration. Osmotic minipumps (Alzet Model 1007D, 0.5 μl/h for 7 days) were filled either with the peptide (to deliver 86.4 μg/day for 7 days) or vehicle and primed at least for 4 h at 37° C. before their implantation. A group of mice heterozygous (+/?) for the obese gene mutation was also implanted with osmotic minipumps filled with vehicle alone. After 7 days of treatment blood was collected into EDTA tubes and separated plasma assayed for corticosterone concentration measurement, by using a commercial rat ^125I-corticosterone (Amersham, U.K.).

Substance: [deamino-Pen^1, o-Me-Tyr^2, Arg^8]-AVP [AVP antagonist]
- Plasma corticosterone concentration (n=7 per group, vehicle 228.9±63 ng/ml): 109.9 ± 19.4 ng/mL
- Plasma corticosterone concentration (effect in words) (versus vehicle and lean group): reduced
